Assay results: patent US20230399312A1, “SUBSTITUTED PYRIMIDINES AND METHODS OF USE” (THERAVANCE BIOPHARMA R&D IP, LLC, priority 2020, published 2023)

How the values were obtained:
[1] = molecular target: T1, recombinant human ALK5 (TGF-βR1) protein (Homo sapiens, UniProt P36897); assay: Biochemical ALK5 (TGF-βR1) assay to measure pKi (LANCE Ultra ULight kinase assay); conditions: apparent pKi, converted from pIC50 by Cheng-Prusoff
T1 construct: purchased Life Technologies PR9075A
T1 sequence (P36897 34-503): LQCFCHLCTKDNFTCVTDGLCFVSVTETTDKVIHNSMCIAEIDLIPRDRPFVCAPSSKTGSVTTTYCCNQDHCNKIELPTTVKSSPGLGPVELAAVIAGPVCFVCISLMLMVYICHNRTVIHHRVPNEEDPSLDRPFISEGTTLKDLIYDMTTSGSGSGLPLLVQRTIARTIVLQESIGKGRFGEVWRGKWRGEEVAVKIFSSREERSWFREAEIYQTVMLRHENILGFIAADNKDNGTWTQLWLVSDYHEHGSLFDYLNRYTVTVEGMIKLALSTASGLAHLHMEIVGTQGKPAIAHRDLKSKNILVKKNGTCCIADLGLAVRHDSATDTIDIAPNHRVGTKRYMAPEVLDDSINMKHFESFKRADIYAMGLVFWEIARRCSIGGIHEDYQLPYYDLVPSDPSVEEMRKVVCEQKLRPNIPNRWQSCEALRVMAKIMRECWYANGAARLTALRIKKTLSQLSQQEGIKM
Summary of the method: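 Enzyme was preincubated with compound for 60 min at room temperature, then ATP (added from a 125 μM 5× stock with 2 mM DTT) started a 60 min reaction at 37 °C. EDTA plus Eu-anti-phospho-Topo2α (Thr1342) antibody stopped it; TR-FRET pIC50 values were converted to pKi by Cheng-Prusoff.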

[2] = tested on: TGF-β-stimulated SMAD3 phosphorylation in BEAS-2B cells; assay: Cellular ALK5 potency assay, inhibition of TGF-β stimulated pSMAD3 formation in BEAS-2B cells; format: cell-based; conditions: Homo sapiens, pSMAD3, TGF-β 10 ng/mL, read-out: BEAS2B pIC50 (converted)
Summary of the method: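 Human lung epithelial BEAS-2B cells were preincubated 1 h at 37 °C with compound in HBSS/HEPES/1% BSA, then stimulated 30 min with 10 ng/mL TGF-β. pSMAD3 in lysates was quantified by AlphaLISA relative to untreated stimulated cells; reported as pIC50.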

Row | Structure (SMILES) | Ki [1] [nM] | IC50 [2] [nM]
1 | Cc1cccc(-c2nccc(Nc3ccnc(Nc4ccc(-c5c(C)noc5C)cc4)n3)n2)n1 [Compound 469, N2-[4-(3,5-dimethylisoxazol-4-yl)phenyl]-N4-[2-(6-methyl-2-pyridyl)pyrimidin-4-yl]pyrimidine-2,4-diamine] | 0.398 to 3.16 | 25.1 to 158
2 | Cc1cccc(-c2nccc(Nc3ccnc(Nc4ccc(CN5[C@H](C)CNC[C@@H]5C)cc4)n3)n2)n1 [Compound 470, N2-[4-[[(2R,6S)-2,6-dimethylpiperazin-1-yl]methyl]phenyl]-N4-[2-(6-methyl-2-pyridyl)pyrimidin-4-yl]pyrimidine-2,4-diamine] | 0.0398 to 0.316 | 25.1 to 158
3 | Cc1cccc(-c2nccc(Nc3ccnc(Nc4ccc(N5CCC(CNCc6ccccc6)CC5)cc4)n3)n2)n1 [Compound 471, N2-[4-[4-[(benzylamino)methyl]-1-piperidyl]phenyl]-N4-[2-(6-methyl-2-pyridyl)pyrimidin-4-yl]pyrimidine-2,4-diamine] | 0.398 to 3.16 | 200 to 1260
4 | Cc1cccc(-c2nccc(Nc3ccnc(Nc4ccc(N5CCC(C(=O)OC6CCN(C)C6)CC5)cc4)n3)n2)n1 (stereo not shown) [Compound 472, (1-methylpyrrolidin-3-yl) 1-[4-[[4-[[2-(6-methyl-2-pyridyl)pyrimidin-4-yl]amino]pyrimidin-2-yl]amino]phenyl]piperidine-4-carboxylate] | 0.0398 to 0.316 | 25.1 to 158
5 | Cc1cccc(-c2nccc(Nc3ccnc(Nc4ccc(N5CCN(C6CNC6)CC5)cc4)n3)n2)n1 [Compound 473, N2-[4-[4-(azetidin-3-yl)piperazin-1-yl]phenyl]-N4-[2-(6-methyl-2-pyridyl)pyrimidin-4-yl]pyrimidine-2,4-diamine] | 0.0398 to 0.316 | 200 to 1260
6 | Cc1cccc(-c2nccc(Nc3ccnc(Nc4ccc(CN5CCC(CO)CC5)cc4)n3)n2)n1 [Compound 474, [1-[[4-[[4-[[2-(6-methyl-2-pyridyl)pyrimidin-4-yl]amino]pyrimidin-2-yl]amino]phenyl]methyl]-4-piperidyl]methanol] | ≤ 0.0316 | 25.1 to 158
7 | Cc1cccc(-c2nccc(Nc3ccnc(Nc4ccc(N5CCOCC5)cc4)n3)n2)n1 [Compound 475, N4-(2-(6-methylpyridin-2-yl)pyrimidin-4-yl)-N2-(4-morpholinophenyl)pyrimidine-2,4-diamine] | 0.0398 to 0.316 | ≤ 20
8 | Cc1cccc(-c2nccc(Nc3ccnc(Nc4ccc(CC5CCNCC5)cc4)n3)n2)n1 [Compound 476, N4-[2-(6-methyl-2-pyridyl)pyrimidin-4-yl]-N2-[4-(4-piperidylmethyl)phenyl] pyrimidine-2,4-diamine] | 0.0398 to 0.316 | 25.1 to 158
9 | Cc1cccc(-c2nccc(Nc3ccnc(Nc4cccc(NC(=O)NCC5CNC5)c4)n3)n2)n1 [Compound 477, 1-(azetidin-3-ylmethyl)-3-[3-[[4-[[2-(6-methyl-2-pyridyl)pyrimidin-4-yl]amino]pyrimidin-2-yl]amino]phenyl]urea] | 0.0398 to 0.316 | ≤ 20
10 | Cc1cccc(-c2nccc(Nc3ccnc(Nc4ccc(N5CCN(CCN)CC5)cc4)n3)n2)n1 [Compound 478, N2-[4-[4-(2-aminoethyl)piperazin-1-yl]phenyl]-N4-[2-(6-methyl-2-pyridyl)pyrimidin-4-yl]pyrimidine-2,4-diamine] | 0.0398 to 0.316 | 200 to 1260
11 | Cc1cccc(-c2nccc(Nc3ccnc(Nc4ccc(N5CCCC(C(=O)O[C@@H]6CCNC6)C5)cc4)n3)n2)n1 (stereo partly drawn) [Compound 479, [(3R)-pyrrolidin-3-yl] 1-[4-[[4-[[2-(6-methyl-2-pyridyl)pyrimidin-4-yl]amino]pyrimidin-2-yl]amino]phenyl]piperidine-3-carboxylate] | 0.0398 to 0.316 | 25.1 to 158
12 | Cc1cccc(-c2nccc(Nc3ccnc(Nc4ccc(CN5CCNCC5(C)C)cc4)n3)n2)n1 [Compound 480, N2-[4-[(2,2-dimethylpiperazin-1-yl)methyl]phenyl]-N4-[2-(6-methyl-2-pyridyl)pyrimidin-4-yl]pyrimidine-2,4-diamine] | 0.0398 to 0.316 | 25.1 to 158
13 | COC(=O)C1CN(Cc2ccc(Nc3nccc(Nc4ccnc(-c5cccc(C)n5)n4)n3)cc2)CCN1C(C)C (stereo not shown) [Compound 481, methyl 1-isopropyl-4-[[4-[[4-[[2-(6-methyl-2-pyridyl)pyrimidin-4-yl]amino]pyrimidin-2-yl]amino]phenyl]methyl] piperazine-2-carboxylate] | 0.398 to 3.16 | 25.1 to 158
14 | Cc1cccc(-c2nc(C)cc(Nc3ccnc(Nc4ccc(N5CCNCC5)cc4)n3)n2)n1 [Compound 482, N4-[6-methyl-2-(6-methyl-2-pyridyl)pyrimidin-4-yl]-N2-(4-piperazin-1-ylphenyl)pyrimidine-2,4-diamine] | 0.0398 to 0.316 | 25.1 to 158
15 | CNCCN1CCN(c2ccc(Nc3nccc(Nc4ccnc(-c5cccc(C)n5)n4)n3)cc2)CC1 [Compound 483, N2-[4-[4-[2-(methylamino)ethyl]piperazin-1-yl]phenyl]-N4-[2-(6-methyl-2-pyridyl)pyrimidin-4-yl]pyrimidine-2,4-diamine] | 0.0398 to 0.316 | 200 to 1260
16 | Cc1cccc(-c2nccc(Nc3ccnc(Nc4ccc(CN5CCC(C(=O)O)CC5)cc4)n3)n2)n1 [Compound 484, 1-[[4-[[4-[[2-(6-methyl-2-pyridyl)pyrimidin-4-yl]amino]pyrimidin-2-yl]amino]phenyl]methyl] piperidine-4-carboxylic acid] | 0.0398 to 0.316 | 200 to 1260
17 | Cc1cccc(-c2nccc(Nc3ccnc(Nc4ccc(Cc5ncco5)cc4)n3)n2)n1 [Compound 485, N4-[2-(6-methyl-2-pyridyl)pyrimidin-4-yl]-N2-[4-(oxazol-2-ylmethyl)phenyl]pyrimidine-2,4-diamine] | 0.398 to 3.16 | 25.1 to 158
18 | Cc1cccc(-c2nccc(Nc3ccnc(Nc4ccc(CN5CCC[C@H](C(=O)O[C@@H]6CCN(C)C6)C5)cc4)n3)n2)n1 [Compound 486, [(3R)-1-methylpyrrolidin-3-yl] (3S)-1-[[4-[[4-[[2-(6-methyl-2-pyridyl)pyrimidin-4-yl]amino]pyrimidin-2-yl]amino]phenyl]methyl] piperidine-3-carboxylate] | 0.0398 to 0.316 | 25.1 to 158
19 | Cc1cccc(-c2nccc(Nc3ccnc(Nc4ccc(Cl)c(CN5C6CCC5CNC6)c4)n3)n2)n1 [Compound 487, N2-[4-chloro-3-(3,8-diazabicyclo[3.2.1]octan-8-ylmethyl)phenyl]-N4-[2-(6-methyl-2-pyridyl)pyrimidin-4-yl]pyrimidine-2,4-diamine] | 0.0398 to 0.316 | 25.1 to 158
20 | Cc1cccc(-c2nccc(Nc3ccnc(Nc4ccc(N5CCN[C@H](C(=O)O)C5)cc4)n3)n2)n1 [Compound 488, (2S)-4-[4-[[4-[[2-(6-methyl-2-pyridyl)pyrimidin-4-yl]amino]pyrimidin-2-yl]amino]phenyl]piperazine-2-carboxylic acid] | 0.0398 to 0.316 | 200 to 1260
21 | Cc1cccc(-c2nccc(Nc3ccnc(Nc4ccc(CC5CCNC5)cc4)n3)n2)n1 (stereo not shown) [Compound 489, N4-(2-(6-methylpyridin-2-yl)pyrimidin-4-yl)-N2-(4-(pyrrolidin-3-ylmethyl)phenyl)pyrimidine-2,4-diamine] | 0.0398 to 0.316 | 25.1 to 158
22 | Cc1cccc(-c2nccc(Nc3ccnc(Nc4ccc(NCC5(O)CNC5)cc4)n3)n2)n1 [Compound 490, 3-[[4-[[4-[[2-(6-methyl-2-pyridyl)pyrimidin-4-yl]amino]pyrimidin-2-yl]amino]anilino]methyl] azetidin-3-ol] | 0.0398 to 0.316 | 25.1 to 158
23 | COC(=O)CC1CN(c2ccc(Nc3nccc(Nc4ccnc(-c5cccc(C)n5)n4)n3)cc2)CCN1 (stereo not shown) [Compound 491, methyl 2-[4-[4-[[4-[[2-(6-methyl-2-pyridyl)pyrimidin-4-yl]amino]pyrimidin-2-yl]amino]phenyl]piperazin-2-yl]acetate] | 0.0398 to 0.316 | 25.1 to 158
24 | Cc1cccc(-c2nccc(Nc3ccnc(Nc4ccc5c(c4)CCCN5)n3)n2)n1 [Compound 492, N4-[2-(6-methyl-2-pyridyl)pyrimidin-4-yl]-N2-(1,2,3,4-tetrahydroquinolin-6-yl)pyrimidine-2,4-diamine] | 0.398 to 3.16 | 25.1 to 158
25 | COC1(C)CN(Cc2ccc(Nc3nccc(Nc4ccnc(-c5cccc(C)n5)n4)n3)cc2)C1 [Compound 493, N2-[4-[(3-methoxy-3-methyl-azetidin-1-yl)methyl]phenyl]-N4-[2-(6-methyl-2-pyridyl)pyrimidin-4-yl]pyrimidine-2,4-diamine] | 0.0398 to 0.316 | 25.1 to 158
26 | Cc1cccc(-c2nccc(Nc3ccnc(Nc4ccc(N5CCN(CC(C)C)CC5)cc4)n3)n2)n1 [Compound 494, N2-[4-(4-isobutylpiperazin-1-yl)phenyl]-N4-[2-(6-methyl-2-pyridyl)pyrimidin-4-yl]pyrimidine-2,4-diamine] | 0.0398 to 0.316 | 25.1 to 158
